Reference: the supplement of paper PMC8617591

Key:
[1] = system: Mycobacterium tuberculosis Erdman (autoluminescent); test: GRinf, maximum normalised growth rate inhibition (three-drug combination) (unitless (-1 to 1)); higher = less effect (negative = killing)
Description: (§1)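 DiaMOND equipotent three-drug combination dose responses (10 doses, 1.5- or 2-fold spacing, centred on IC90) against autoluminescent M. tuberculosis Erdman in 8 in vitro models. Read-out is OD600, or luminescence for the intracellular and dormancy models, normalised to untreated wells. Hill-fit Einf, AUC25 and GRinf are potency metrics; FIC50 and FIC90 are total Loewe fractional inhibitory concentrations as log2 (negative = synergy).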

[2] = system: Mycobacterium tuberculosis Erdman (autoluminescent); test: Einf, fitted maximum growth inhibition of three-drug combination (fraction); higher = stronger maximal inhibition
Description: as §1

[3] = system: Mycobacterium tuberculosis Erdman (autoluminescent); test: AUC25, normalised area under dose response up to IC25 (three-drug combination) (fraction (0-1)); higher = more potent at low dose
Description: as §1

[4] = system: Mycobacterium tuberculosis Erdman (autoluminescent); test: total FIC90 (Loewe) at 90% inhibition, three-drug combination (log2); higher = more antagonistic
Description: as §1

[5] = system: Mycobacterium tuberculosis Erdman (autoluminescent); test: total FIC50 (Loewe) at 50% inhibition, three-drug combination (log2); higher = more antagonistic
Description: as §1

[6] = in vitro model: acidic pH 5.7, time point: constant (~7 days, model-specific)
[7] = in vitro model: acidic pH 5.7, time point: terminal (~4-5 doublings, model-specific)
[8] = in vitro model: butyrate, time point: constant (~7 days, model-specific)
[9] = in vitro model: butyrate, time point: terminal (~4-5 doublings, model-specific)
[10] = in vitro model: cholesterol 0.05 mM, time point: constant (~7 days, model-specific)
[11] = in vitro model: cholesterol 0.05 mM, time point: terminal (~4-5 doublings, model-specific)
[12] = in vitro model: cholesterol-high 0.2 mM, time point: constant (~7 days, model-specific)
[13] = in vitro model: cholesterol-high 0.2 mM, time point: terminal (~4-5 doublings, model-specific)
[14] = in vitro model: dormancy (butyrate + nitrate, low O2), time point: constant (~7 days, model-specific)
[15] = in vitro model: dormancy (butyrate + nitrate, low O2), time point: terminal (~4-5 doublings, model-specific)
[16] = in vitro model: intracellular J774, time point: constant = terminal
[17] = in vitro model: standard 7H9 glycerol, time point: constant = terminal
[18] = in vitro model: valerate, time point: constant (~7 days, model-specific)
[19] = in vitro model: valerate, time point: terminal (~4-5 doublings, model-specific)

In the case of `COc1nc2ccc(Br)cc2cc1[C@@H](c1ccccc1)[C@@](O)(CCN(C)C)c1cccc2ccccc12` [bedaquiline] + NNC(=O)c1ccncc1 [isoniazid] + CC(=O)NC[C@H]1CN(c2ccc(N3CCOCC3)c(F)c2)C(=O)O1 [linezolid], the GRinf [1, 6] was -0.504, the GRinf [1, 7] was -0.207 and the GRinf [1, 8] was -0.00837. The GRinf [1, 9] was -0.0285, the GRinf [1, 10] was -0.291 and the GRinf [1, 11] was -0.463. The GRinf [1, 12] was -0.63, the GRinf [1, 13] was -0.702 and the GRinf [1, 14] was 0.215. The GRinf [1, 15] was -0.127, the GRinf [1, 16] was -0.0256 and the GRinf [1, 17] was -0.0711. The GRinf [1, 18] was -0.345, the GRinf [1, 19] was -0.111 and the Einf [2, 6] was 0.912. The Einf [2, 7] was 0.977, the Einf [2, 8] was 0.917 and the Einf [2, 9] was 0.962. The Einf [2, 10] was 0.735, the Einf [2, 11] was 0.945 and the Einf [2, 12] was 0.955. For the same molecule, the Einf [2, 13] was 1, the Einf [2, 14] was 0.93 and the Einf [2, 15] was 0.989. It also gave an Einf [2, 16] of 0.898, an Einf [2, 17] of 0.957 and an Einf [2, 18] of 0.928. The Einf [2, 19] was 0.959, the AUC25 [3, 6] was 0.106 and the AUC25 [3, 7] was 0.099. For the same molecule, the AUC25 [3, 8] was 0.0832, the AUC25 [3, 9] was 0.0647 and the AUC25 [3, 10] was 0.139. The AUC25 [3, 11] was 0.147, the AUC25 [3, 12] was 0.114 and the AUC25 [3, 13] was 0.0961. For the same molecule, the AUC25 [3, 14] was 0.0688, the AUC25 [3, 15] was 0.0346 and the AUC25 [3, 17] was 0.0715. The AUC25 [3, 18] was 0.107, the AUC25 [3, 19] was 0.0588 and the “total FIC90” value [4, 7] was 0.522. The “total FIC90” value [4, 8] was 1.08, the “total FIC90” value [4, 9] was 0.944 and the “total FIC90” value [4, 11] was 0.413. For the same molecule, the “total FIC90” value [4, 12] was 1.92, the “total FIC90” value [4, 13] was 0.793 and the “total FIC90” value [4, 14] was 0.532. The “total FIC90” value [4, 15] was 0.255, the “total FIC90” value [4, 16] was 0.82 and the “total FIC90” value [4, 17] was -0.28. The “total FIC90” value [4, 18] was 0.911, the “total FIC90” value [4, 19] was 0.84 and the “total FIC50” value [5, 6] was 0.42. The “total FIC50” value [5, 7] was 0.426, the “total FIC50” value [5, 8] was 0.739 and the “total FIC50” value [5, 9] was 0.794. The “total FIC50” value [5, 10] was 0.27, the “total FIC50” value [5, 11] was 4.34 and the “total FIC50” value [5, 12] was 0.506. For the same molecule, the “total FIC50” value [5, 13] was 0.549, the “total FIC50” value [5, 14] was 0.921 and the “total FIC50” value [5, 15] was 0.777. The “total FIC50” value [5, 17] was 0.0514, the “total FIC50” value [5, 18] was 0.58 and the “total FIC50” value [5, 19] was 0.894.

`COc1nc2ccc(Br)cc2cc1[C@@H](c1ccccc1)[C@@](O)(CCN(C)C)c1cccc2ccccc12` [bedaquiline] + NNC(=O)c1ccncc1 [isoniazid] + CO[C@H]1/C=C/O[C@@]2(C)Oc3c(C)c(O)c4c(O)c(c(/C=N/N5CCN(C6CCCC6)CC5)c(O)c4c3C2=O)NC(=O)/C(C)=C\C=C\[C@H](C)[C@H](O)[C@@H](C)[C@@H](O)[C@@H](C)[C@H](OC(C)=O)[C@@H]1C [rifapentine] was tested, and the GRinf [1, 6] was -0.468, the GRinf [1, 7] was -0.375 and the GRinf [1, 8] was -0.0408. For the same molecule, the GRinf [1, 9] was -0.0505, the GRinf [1, 10] was -0.113 and the GRinf [1, 11] was -0.101. For the same molecule, the GRinf [1, 12] was -0.564, the GRinf [1, 13] was -0.621 and the GRinf [1, 14] was 0.303. The GRinf [1, 15] was -0.0574, the GRinf [1, 16] was -0.0955 and the GRinf [1, 17] was -0.00945. For the same molecule, the GRinf [1, 18] was -0.146, the GRinf [1, 19] was -0.122 and the Einf [2, 6] was 0.958. It also gave an Einf [2, 7] of 0.998, an Einf [2, 8] of 0.93 and an Einf [2, 9] of 0.969. For the same molecule, the Einf [2, 10] was 0.689, the Einf [2, 11] was 0.905 and the Einf [2, 12] was 0.954. The Einf [2, 13] was 1, the Einf [2, 14] was 0.89 and the Einf [2, 15] was 0.986. For the same molecule, the Einf [2, 16] was 0.92, the Einf [2, 17] was 0.942 and the Einf [2, 18] was 0.906. For the same molecule, the Einf [2, 19] was 0.958, the AUC25 [3, 6] was 0.0986 and the AUC25 [3, 7] was 0.0903. The AUC25 [3, 8] was 0.0748, the AUC25 [3, 9] was 0.0596 and the AUC25 [3, 10] was 0.0859. For the same molecule, the AUC25 [3, 11] was 0.0803, the AUC25 [3, 12] was 0.0656 and the AUC25 [3, 13] was 0.06. It also gave an AUC25 [3, 14] of 0.0684, an AUC25 [3, 15] of 0.0424 and an AUC25 [3, 17] of 0.0599. The AUC25 [3, 18] was 0.0499, the AUC25 [3, 19] was 0.0394 and the “total FIC90” value [4, 7] was 0.815. The “total FIC90” value [4, 8] was -0.0255, the “total FIC90” value [4, 9] was 0.51 and the “total FIC90” value [4, 11] was 0.195. For the same molecule, the “total FIC90” value [4, 13] was 0.847, the “total FIC90” value [4, 14] was 0.878 and the “total FIC90” value [4, 15] was 0.296. For the same molecule, the “total FIC90” value [4, 16] was 0.118, the “total FIC90” value [4, 17] was -0.235 and the “total FIC90” value [4, 19] was 1. For the same molecule, the “total FIC50” value [5, 6] was 0.854, the “total FIC50” value [5, 7] was 0.671 and the “total FIC50” value [5, 8] was 0.749. The “total FIC50” value [5, 9] was 0.65, the “total FIC50” value [5, 10] was 0.606 and the “total FIC50” value [5, 11] was 0.573. For the same molecule, the “total FIC50” value [5, 12] was 0.787, the “total FIC50” value [5, 13] was 0.962 and the “total FIC50” value [5, 14] was 0.628. For the same molecule, the “total FIC50” value [5, 15] was 0.557, the “total FIC50” value [5, 17] was 0.229 and the “total FIC50” value [5, 18] was 0.867. For the same molecule, the “total FIC50” value [5, 19] was 1.05.

For `COc1nc2ccc(Br)cc2cc1[C@@H](c1ccccc1)[C@@](O)(CCN(C)C)c1cccc2ccccc12` [bedaquiline] + NNC(=O)c1ccncc1 [isoniazid] + CO[C@H]1/C=C/O[C@@]2(C)Oc3c(C)c(O)c4c(O)c(c(/C=N/N5CCN(C)CC5)c(O)c4c3C2=O)NC(=O)/C(C)=C\C=C\[C@H](C)[C@H](O)[C@@H](C)[C@@H](O)[C@@H](C)[C@H](OC(C)=O)[C@@H]1C [rifampicin], the GRinf [1, 6] was -0.45, the GRinf [1, 7] was -0.282 and the GRinf [1, 8] was -0.0859. It also gave a GRinf [1, 9] of -0.052, a GRinf [1, 10] of -0.157 and a GRinf [1, 11] of -0.164. For the same molecule, the GRinf [1, 12] was -0.43, the GRinf [1, 13] was -0.606 and the GRinf [1, 14] was 0.222. The GRinf [1, 15] was -0.16, the GRinf [1, 16] was -0.25 and the GRinf [1, 17] was -0.0733. For the same molecule, the GRinf [1, 18] was -0.0907, the GRinf [1, 19] was -0.0942 and the Einf [2, 6] was 0.955. For the same molecule, the Einf [2, 7] was 0.99, the Einf [2, 8] was 0.946 and the Einf [2, 9] was 0.977. It also gave an Einf [2, 10] of 0.689, an Einf [2, 11] of 0.918 and an Einf [2, 12] of 0.978. It also gave an Einf [2, 13] of 0.998, an Einf [2, 14] of 0.908 and an Einf [2, 15] of 0.987. For the same molecule, the Einf [2, 16] was 0.965, the Einf [2, 17] was 0.939 and the Einf [2, 18] was 0.912. For the same molecule, the Einf [2, 19] was 0.963, the AUC25 [3, 6] was 0.108 and the AUC25 [3, 7] was 0.089. It also gave an AUC25 [3, 8] of 0.102, an AUC25 [3, 9] of 0.0879 and an AUC25 [3, 10] of 0.0808. It also gave an AUC25 [3, 11] of 0.0785, an AUC25 [3, 12] of 0.0768 and an AUC25 [3, 13] of 0.0551. It also gave an AUC25 [3, 14] of 0.0706, an AUC25 [3, 15] of 0.0374 and an AUC25 [3, 17] of 0.0722. The AUC25 [3, 18] was 0.0578, the AUC25 [3, 19] was 0.0274 and the “total FIC90” value [4, 7] was 0.706. The “total FIC90” value [4, 8] was 0.602, the “total FIC90” value [4, 9] was 0.56 and the “total FIC90” value [4, 11] was -0.254. For the same molecule, the “total FIC90” value [4, 13] was 0.598, the “total FIC90” value [4, 14] was 0.621 and the “total FIC90” value [4, 15] was 0.0703. The “total FIC90” value [4, 16] was 0.354, the “total FIC90” value [4, 17] was 0.0151 and the “total FIC90” value [4, 19] was 1.01. For the same molecule, the “total FIC50” value [5, 6] was 0.796, the “total FIC50” value [5, 7] was 0.663 and the “total FIC50” value [5, 8] was 0.575. The “total FIC50” value [5, 9] was 0.331, the “total FIC50” value [5, 10] was -0.117 and the “total FIC50” value [5, 11] was 0.536. For the same molecule, the “total FIC50” value [5, 12] was 0.606, the “total FIC50” value [5, 13] was 0.868 and the “total FIC50” value [5, 14] was 0.635. For the same molecule, the “total FIC50” value [5, 15] was 0.347, the “total FIC50” value [5, 17] was 0.27 and the “total FIC50” value [5, 18] was 1.13. For the same molecule, the “total FIC50” value [5, 19] was 1.33.
